# Laboratory results: BindingDB's records for doi:10.1016/j.ejmech.2015.10.016 (University of Groningen, 2015)
# Target: T1, Histone acetyltransferase KAT8 (Homo sapiens, UniProt Q9H7Z6)
# T1 sequence (Q9H7Z6 whole entry): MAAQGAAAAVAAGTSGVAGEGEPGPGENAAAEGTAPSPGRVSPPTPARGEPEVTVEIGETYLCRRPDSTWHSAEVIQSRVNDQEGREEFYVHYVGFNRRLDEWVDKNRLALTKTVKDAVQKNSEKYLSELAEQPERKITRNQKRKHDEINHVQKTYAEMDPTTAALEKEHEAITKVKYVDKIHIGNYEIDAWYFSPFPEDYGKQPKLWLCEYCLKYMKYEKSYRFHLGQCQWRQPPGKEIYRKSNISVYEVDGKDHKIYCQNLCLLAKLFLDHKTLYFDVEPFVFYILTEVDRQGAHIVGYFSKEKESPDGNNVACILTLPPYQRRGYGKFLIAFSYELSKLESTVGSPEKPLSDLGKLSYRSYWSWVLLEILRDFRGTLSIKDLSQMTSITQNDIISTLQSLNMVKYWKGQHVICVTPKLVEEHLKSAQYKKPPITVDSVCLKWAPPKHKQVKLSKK
# Assay: Inhibition of recombinant N-terminal His6-tagged KAT8 (unknown origin) expressed in Escherichia Coli BL21 DE3 cells assessed as reduction of Co A level using histone H4 substrate after 15 mins by CPM fluorescence assay
row,IC50 [µM],SMILES
1,> 631,CCCCCc1cccc(O)c1C(=O)O [6-Pentylsalicylic Acid]
2,123,CCCCCCCCCCc1cccc(O)c1C(=O)O
3,191,CCCCCCCCCCc1ccc(O)c(C(=O)O)c1
4,263,CCCCCCCCCCCCCCCc1ccc(O)c(C(=O)O)c1
5,> 631,CCCCCc1ccc(O)c(C(=O)O)c1

# More lines, now with the values behind:
row,SMILES,IC50 [µM]
1,CC1=NN(c2ccc(C(=O)O)cc2)C(=O)/C1=C/c1ccc(-c2cc(C)c(C)cc2[N+](=O)[O-])o1,> 631
2,O=C(O)c1c(O)cccc1CCCCCO,> 631
3,O=C(O)c1c(O)cccc1CCCCCCCCCCCO,525
4,CCCCCCCSCC(=O)c1ccccc1O,> 631
